# PubChem BioAssay AID1919002 (Molecular Pharmacology Branch, DTP, NCI, 2023)
# Several values for one entry are separate records, joined by “and”; a condition that tells them apart may be missing. Equal entries are not always repeated.
# Test system: 743489-274-T-PDC complex spheroid growth
# Test: Anticancer human tumor 743489-274-T-PDC patient-derived renal cell carcinoma cell line growth inhibition [AhR]
# Details: for viability, T/C: stronger effect = lower value
# From the text: Multicellular complex tumor spheroid response to aryl hydrocarbon receptor antagonists in combination with a variety of drugs and investigational agents in selected tumor cell lines
# The current study was undertaken to assess response to aryl hydrocarbon receptor antagonists in combination with standard-of-care drugs and investigational agents in solid tumor complex spheroid models. Complex spheroids include a stromal component modeled by human endothelial cells (HUVEC) and fibroblasts modeled by human mesenchymal stem cells (MSCs). The concentration ranges selected for each drug and investigational agent were based upon clinically achievable concentrations if the clinical Cmax of the agent was known.
# Compounds. The drugs and investigational agents: BAY 2416964 (NSC825713), GNF351 (NSC835774), CH-223191 (NSC835775), CPI-455 (NSC825282), aza-TdCyd (NSC777586), decitabine (NSC127716), belinostat (NSC758774), entinostat (NSC756642), pevonedistat (NSC761192), tazemetostat (NSC777109), talazoparib (NSC765396), olaparib (NSC753686), selinexor (NSC780203), nedisertib (M3814, NSC802822), bortezomib (NSC756655), venetoclax (NSC766270), doxorubicin (NSC123127), elimusertib (BAY189344, NSC800525), ceralasertib (AZD6738, NSC777638), TAK-243 (NSC785004), alisertib (NSC759677), etoposide (NSC141540), topotecan (NSC609699), eribulin (NSC707389), gemcitabine (NSC613327), carboplatin (NSC241240), cisplatin (NSC119875), and SN-38 (NSC673596) were obtained from the National Cancer Institute (NCI) Developmental Therapeutics Program Chemical Repository (32). The FDA-approved anticancer drug set is available from the Developmental Therapeutics Program at https://dtp.cancer.gov/organization/dscb/obtaining/available plates.htm. […] The stock solutions were prepared in dimethyl sulfoxide (DMSO, Sigma-Aldrich, St. Louis, MO, cat. D2650), except for the platinum compounds which were prepared in saline (Quality Biological, Gaithersburg, MD, cat. 114-055-101), at 800-fold the tested concentration and stored at -70 degrees C prior to their use. All drugs and investigational agents were tested over a range starting from a high concentration at or near the clinical Cmax and decreasing in half-log increments. If the clinical Cmax for an agent had not been determined, the highest concentration tested was 10 microM (Table 1).
# Cell Culture. All cells were maintained in an incubator at 37 degrees C and 5% CO2 with 95% humidity. The PDC lines were cultured according to standard operating procedures established by the NCI PDMR (https://pdmr.cancer.gov). Briefly, all PDCs were thawed and cultured in Matrigel-coated flasks prepared with a working solution of 1X Ham's F-12 nutrient mix, without supplementation (Invitrogen, Waltham, MA, cat. 11765054), 100 U/mL penicillin-streptomycin (Invitrogen, cat. 15140122), and 2.5% Matrigel (Corning Inc., Corning, NY, cat. 354248) for the first three passages. All PDCs were cultured in complete DMEM/F-12 media containing advanced DMEM/F-12 (Invitrogen, cat. 12634028), 4.9% defined fetal bovine serum, heat inactivated (HyClone Laboratories Inc., Logan, UT, cat. SH30070.03HI), 389 ng/mL hydrocortisone (Sigma-Aldrich, cat. H4001), 9.7 ng/mL human EGF recombinant protein (Invitrogen, cat. PHG0313), 23.4 microg/mL adenine (Sigma-Aldrich, cat. A2786), 97.3 U/mL penicillin-streptomycin (Invitrogen, cat. 15140122), 1.9 mM L-glutamine (Invitrogen, cat. 25030081), and 9.7 microM Y-27632 dihydrochloride (Tocris Bioscience, Bristol, United Kingdom, cat. 1254). The PDCs were cultured in complete DMEM/F12 media without 10 microM Y-27632 dihydrochloride for at least two passages prior to the screen. The established cell lines NCI-H1341 and […] were cultured in DMEM/F-12, HEPES (Invitrogen, cat. 11330032), 5% defined fetal bovine serum (HyClone Laboratories Inc., cat. SH30070.03), ITS premix universal culture supplement [insulin (5 microg/mL), transferrin (5 microg/mL), and selenious acid (5 ng/mL)] […]
# [1] = curve of first compound, second compound 0.1 µM
# [2] = curve of first compound, second compound 0.316 µM
# [3] = curve of first compound, second compound 1 µM
# [4] = curve of first compound, second compound 3.16 µM
# [5] = curve of first compound, second compound 10 µM
# 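Note: spheroids exposed to agents for 7 days before readout.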
# 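Throughout, for viability, T/C: 100% = DMSO vehicle control wells.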
smiles,measurement,setting,value
COc1cc(C2c3cc4c(cc3C(OC3OC5COC(C)OC5C(O)C3O)C3COC(=O)C23)OCO4)cc(OC)c1O (stereo unspecified) + Cc1cncc(-c2nc(NCCc3c[nH]c4ccccc34)c3ncn(C(C)C)c3n2)c1,IC50,[1],> 10 µM
same,IC50,[2],> 10 µM
same,IC50,[3],> 10 µM
same,IC50,[4],> 10 µM
same,IC50,[5],> 10 µM
same,"viability, T/C","second compound 0.1 µM, first compound 0.0316 µM",97.7%
same,"viability, T/C","second compound 0.1 µM, first compound 0.1 µM",88.2%
same,"viability, T/C","second compound 0.1 µM, first compound 0.316 µM",88%
same,"viability, T/C","second compound 0.1 µM, first compound 1 µM",96.8%
same,"viability, T/C","second compound 0.1 µM, first compound 3.16 µM",82.3%
same,"viability, T/C","second compound 0.1 µM, first compound 10 µM",74.6%
same,"viability, T/C","second compound 0.316 µM, first compound 0.0316 µM",94.1%
same,"viability, T/C","second compound 0.316 µM, first compound 0.1 µM",82.6%
same,"viability, T/C","second compound 0.316 µM, first compound 0.316 µM",78.2%
same,"viability, T/C","second compound 0.316 µM, first compound 1 µM",80%
same,"viability, T/C","second compound 0.316 µM, first compound 3.16 µM",75.2%
same,"viability, T/C","second compound 0.316 µM, first compound 10 µM",78.5%
same,"viability, T/C","second compound 1 µM, first compound 0.0316 µM",90.2%
same,"viability, T/C","second compound 1 µM, first compound 0.1 µM",87.6%
same,"viability, T/C","second compound 1 µM, first compound 0.316 µM",80.5%
same,"viability, T/C","second compound 1 µM, first compound 1 µM",78.1%
same,"viability, T/C","second compound 1 µM, first compound 3.16 µM",80.4%
same,"viability, T/C","second compound 1 µM, first compound 10 µM",80.8%
same,"viability, T/C","second compound 3.16 µM, first compound 0.0316 µM",95.3%
same,"viability, T/C","second compound 3.16 µM, first compound 0.1 µM",87.9%
same,"viability, T/C","second compound 3.16 µM, first compound 0.316 µM",91.4%
same,"viability, T/C","second compound 3.16 µM, first compound 1 µM",92.6%
same,"viability, T/C","second compound 3.16 µM, first compound 3.16 µM",80.1%
same,"viability, T/C","second compound 3.16 µM, first compound 10 µM",74.8%
same,"viability, T/C","second compound 10 µM, first compound 0.0316 µM",131%
same,"viability, T/C","second compound 10 µM, first compound 0.1 µM",117%
same,"viability, T/C","second compound 10 µM, first compound 0.316 µM",95.6%
same,"viability, T/C","second compound 10 µM, first compound 1 µM",110%
same,"viability, T/C","second compound 10 µM, first compound 3.16 µM",102%
same,"viability, T/C","second compound 10 µM, first compound 10 µM",100%
Nc1ncn(C2CC(O)C(CO)O2)c(=O)n1 (stereo unspecified),"viability, T/C",compound 0.00316 µM,94.8% and 98.8% and 101%
same,"viability, T/C",compound 0.01 µM,112% and 106% (2×)
same,"viability, T/C",compound 0.0316 µM,102% and 106% and 105%
same,"viability, T/C",compound 0.1 µM,90.8% and 93.7% and 102%
same,"viability, T/C",compound 0.316 µM,100% and 96.7% and 104%
same,"viability, T/C",compound 1 µM,94% and 93.5% (2×)
same,IC50,curve of compound,> 1 µM
COc1cccc2c1C(=O)c1c(O)c3c(c(O)c1C2=O)CC(O)(C(=O)CO)CC3OC1CC(N)C(O)C(C)O1 (stereo unspecified),"viability, T/C",compound 0.0316 µM,100% and 108% and 103%
same,"viability, T/C",compound 0.1 µM,102% and 110% and 125%
same,"viability, T/C",compound 0.316 µM,101% and 112% and 108%
same,"viability, T/C",compound 1 µM,107% and 105% and 103%
same,"viability, T/C",compound 3.16 µM,88% and 77.8% and 89.9%
same,"viability, T/C",compound 10 µM,65.5% and 21.7% and 22.8%
same,IC50,curve of compound,> 10 µM and 5.59 µM and 6.23 µM
CCN(c1cc(-c2ccc(CN3CCOCC3)cc2)cc(C(=O)NCc2c(C)cc(C)[nH]c2=O)c1C)C1CCOCC1,"viability, T/C",compound 0.00949 µM,107% and 101% and 108%
same,"viability, T/C",compound 0.03 µM,102% and 103% and 122%
same,"viability, T/C",compound 0.0949 µM,102% and 86.6% and 107%
same,"viability, T/C",compound 0.3 µM,102% and 99.9% and 101%
same,"viability, T/C",compound 0.949 µM,94.9% and 104% and 108%
same,"viability, T/C",compound 3 µM,102% and 91% and 101%
same,IC50,curve of compound,> 3 µM
CCc1c2c(nc3ccc(O)cc13)-c1cc3c(c(=O)n1C2)COC(=O)[C@]3(O)CC + CC(CO)NC(=O)c1cc(-c2ccc(Cl)cc2)nn(-c2cnn(C)c2)c1=O,IC50,[1],> 0.3 µM
same,IC50,[2],> 0.3 µM
same,IC50,[3],> 0.3 µM
same,IC50,[4],> 0.3 µM
same,IC50,[5],> 0.3 µM
same,"viability, T/C","second compound 0.1 µM, first compound 0.000949 µM",107%
same,"viability, T/C","second compound 0.1 µM, first compound 0.003 µM",105%
same,"viability, T/C","second compound 0.1 µM, first compound 0.00949 µM",87%
same,"viability, T/C","second compound 0.1 µM, first compound 0.03 µM",88.1%
same,"viability, T/C","second compound 0.1 µM, first compound 0.0949 µM",70.5%
same,"viability, T/C","second compound 0.1 µM, first compound 0.3 µM",64.5%
same,"viability, T/C","second compound 0.316 µM, first compound 0.000949 µM",87.7%
same,"viability, T/C","second compound 0.316 µM, first compound 0.003 µM",94%
same,"viability, T/C","second compound 0.316 µM, first compound 0.00949 µM",103%
same,"viability, T/C","second compound 0.316 µM, first compound 0.03 µM",78.7%
same,"viability, T/C","second compound 0.316 µM, first compound 0.0949 µM",71.5%
same,"viability, T/C","second compound 0.316 µM, first compound 0.3 µM",55.8%
same,"viability, T/C","second compound 1 µM, first compound 0.000949 µM",98.4%
same,"viability, T/C","second compound 1 µM, first compound 0.003 µM",88.7%
same,"viability, T/C","second compound 1 µM, first compound 0.00949 µM",91.6%
same,"viability, T/C","second compound 1 µM, first compound 0.03 µM",88.7%
same,"viability, T/C","second compound 1 µM, first compound 0.0949 µM",73.1%
same,"viability, T/C","second compound 1 µM, first compound 0.3 µM",68.4%
same,"viability, T/C","second compound 3.16 µM, first compound 0.000949 µM",94.2%
same,"viability, T/C","second compound 3.16 µM, first compound 0.003 µM",100%
same,"viability, T/C","second compound 3.16 µM, first compound 0.00949 µM",97.9%
same,"viability, T/C","second compound 3.16 µM, first compound 0.03 µM",84.3%
same,"viability, T/C","second compound 3.16 µM, first compound 0.0949 µM",76.8%
same,"viability, T/C","second compound 3.16 µM, first compound 0.3 µM",59.3%
same,"viability, T/C","second compound 10 µM, first compound 0.000949 µM",87.7%
same,"viability, T/C","second compound 10 µM, first compound 0.003 µM",93.1%
same,"viability, T/C","second compound 10 µM, first compound 0.00949 µM",82.7%
same,"viability, T/C","second compound 10 µM, first compound 0.03 µM",97.7%
same,"viability, T/C","second compound 10 µM, first compound 0.0949 µM",79.7%
same,"viability, T/C","second compound 10 µM, first compound 0.3 µM",65.2%
